Read-outs that look alike come from different tables or passages of the source.
Legend:
[1] = system: TS-resistant strain of MG; type: in vivo, chicken; conditions: 10-days chicken, 1.2 x 10³ CFU/fowl; for Infectious index Left air sack + / Infectious index Left air sack ++ / Infectious index Left air sack +++ / Infectious index Left air sack - / Infectious index Right air sack + / Infectious index Right air sack ++ / Infectious index Right air sack +++ / Infectious index Right air sack -: count of fowl
[2] = system: Streptococcus sp (Str.sp) SNO6119; experiment: In vitro sensitivity test; type: cell-based; conditions: 25°C, 40 to 48 hours
[3] = system: Pasteurella piscicida (P.pis) No. 2; experiment: In vitro sensitivity test; type: cell-based; conditions: 25°C, 40 to 48 hours
In short: (§1)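 Read-out is visual growth after incubation. Conditions were 37°C for 7 days in Frey medium (12 % pig-serum, 0.01 % βNAD; liquid dilution) for MS, and 37°C for 20 to 24 hours on Mueller Hinton agar for S.au. P.pis used 25°C, 40 to 48 hours, on 1.5 % NaCl heart infusion agar.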

TS-resistant MG = experiment: Experimental MG infection to chicken, through injection; type: in vivo; conditions: 5 fowl tested, 10-days chicken, 3.1 x 10³ CFU/fowl; for Infectious index Left air sack + (number of fowl) / Infectious index Right air sack + (number of fowl): grade + = slight infection; for Infectious index Left air sack ++ (number of fowl) / Infectious index Right air sack ++ (number of fowl): grade ++ = considerable infection; for Infectious index Left air sack +++ (number of fowl) / Infectious index Right air sack +++ (number of fowl): grade +++ = severe infection; for Infectious index Left air sack - (number of fowl) / Infectious index Right air sack - (number of fowl): grade - = no infection
[4] = system: Hemophilus pleuropneumonia (H.pp) M-1; experiment: In vitro sensitivity test (agar dilution method); type: cell-based; conditions: 37°C, 20 hours, 10 % CO₂
[5] = system: Hemophilus paragallinarum (H.pg) 221; experiment: In vitro sensitivity test (agar dilution method); type: cell-based; conditions: agar dilution, 37°C, 20 hours, 10 % CO₂
[6] = system: Hemophilus paragallinarum (H.pg) S-1; experiment: In vitro sensitivity test (agar dilution method); type: cell-based; conditions: agar dilution, 37°C, 20 hours, 10 % CO₂
[7] = system: Staphylococcus aureus (S.au) 209P; experiment: In vitro sensitivity test (agar dilution method); type: cell-based; conditions: 37°C, 20 to 24 hours
In short: as §1

[8] = system: Bordetella bronchiseptica (B.br) ABU-1; experiment: In vitro sensitivity test (agar dilution method); type: cell-based; conditions: 37°C, 20 to 24 hours
[9] = system: Escherichia coli (E.coli) E-17, chicken-origin strain isolated from the field; experiment: In vitro sensitivity test (agar dilution method); type: cell-based; conditions: 37°C, 20 to 24 hours
In short: as §1

[10] = system: Escherichia coli (E.coli) JC-2; experiment: In vitro sensitivity test (agar dilution method); type: cell-based; conditions: 37°C, 20 to 24 hours
[11] = system: Salmonella typhimurium (S.typhi) 13311; experiment: In vitro sensitivity test (agar dilution method); type: cell-based; conditions: 37°C, 20 to 24 hours
[12] = system: Mycoplasma gallisepticum (MG) T-7-T, TS-resistant strain isolated from the field; experiment: In vitro sensitivity test (liquid dilution method); type: cell-based; conditions: 37°C, 7 days
[13] = system: Mycoplasma synoviae (MS) 1853; experiment: In vitro sensitivity test (liquid dilution method); type: cell-based; conditions: 37°C, 7 days
In short: as §1

[14] = system: Mycoplasma gallisepticum (MG) S6; experiment: In vitro sensitivity test (liquid dilution method); type: cell-based; conditions: 37°C, 7 days
[15] = system: Mycoplasma hyopneumoniae (Mh) ST-11; experiment: In vitro sensitivity test (liquid dilution method); type: cell-based; conditions: 37°C, 7 days
[16] = system: Mycoplasma synoviae (MS) F10-2as; experiment: In vitro sensitivity test (liquid dilution method); type: cell-based; conditions: 37°C, 7 days
In short: as §1

N[C@H]1CCC[C@H]2CN(c3c(F)cc4c(=O)c(C(=O)O)cn(C5CC5)c4c3F)CC[C@H]21 (relative stereo) [I-6]
Infectious index Left air sack + ([1]; oral 3.13 mg/kg): 0 | Infectious index Left air sack ++ ([1]; oral 3.13 mg/kg): 0 | Infectious index Left air sack +++ ([1]; oral 3.13 mg/kg): 0 | Infectious index Left air sack - ([1]; oral 3.13 mg/kg): 5 | Infectious index Right air sack + ([1]; oral 3.13 mg/kg): 0 | Infectious index Right air sack ++ ([1]; oral 3.13 mg/kg): 0 | Infectious index Right air sack +++ ([1]; oral 3.13 mg/kg): 0 | Infectious index Right air sack - ([1]; oral 3.13 mg/kg): 5 | Infectious index Left air sack + ([1]; oral 6.25 mg/kg): 1 | Infectious index Left air sack ++ ([1]; oral 6.25 mg/kg): 0 | Infectious index Left air sack +++ ([1]; oral 6.25 mg/kg): 0 | Infectious index Left air sack - ([1]; oral 6.25 mg/kg): 4 | Infectious index Right air sack + ([1]; oral 6.25 mg/kg): 1 | Infectious index Right air sack ++ ([1]; oral 6.25 mg/kg): 4 | Infectious index Right air sack +++ ([1]; oral 6.25 mg/kg): 0 | Infectious index Right air sack - ([1]; oral 6.25 mg/kg): 0 | Infectious index Left air sack + ([1]; oral 12.5 mg/kg): 0 | Infectious index Left air sack ++ ([1]; oral 12.5 mg/kg): 0 | Infectious index Left air sack +++ ([1]; oral 12.5 mg/kg): 0 | Infectious index Left air sack - ([1]; oral 12.5 mg/kg): 5 | Infectious index Right air sack + ([1]; oral 12.5 mg/kg): 0 | Infectious index Right air sack ++ ([1]; oral 12.5 mg/kg): 4 | Infectious index Right air sack +++ ([1]; oral 12.5 mg/kg): 1 | Infectious index Right air sack - ([1]; oral 12.5 mg/kg): 0 | Number of fowl having air sack lesions ([1]; oral 3.13 mg/kg): 0 | Number of fowl having air sack lesions ([1]; oral 6.25 mg/kg): 5 | Number of fowl having air sack lesions ([1]; oral 12.5 mg/kg): 5 | In vitro Sensitivity Test Str.sp SNO6119 [2]: 0.39 µg/mL | In vitro Sensitivity Test P.pis No. 2 [3]: 0.78 µg/mL | Number of fowl having air sack lesions (TS-resistant MG; Dose 1.56 mg/kg): 0 | Infectious index Left air sack + (number of fowl) (TS-resistant MG; Dose 1.56 mg/kg): 0 | Infectious index Right air sack + (number of fowl) (TS-resistant MG; Dose 1.56 mg/kg): 0 | Infectious index Left air sack ++ (number of fowl) (TS-resistant MG; Dose 1.56 mg/kg): 0 | Infectious index Right air sack ++ (number of fowl) (TS-resistant MG; Dose 1.56 mg/kg): 0 | Infectious index Left air sack +++ (number of fowl) (TS-resistant MG; Dose 1.56 mg/kg): 0 | Infectious index Right air sack +++ (number of fowl) (TS-resistant MG; Dose 1.56 mg/kg): 0 | Infectious index Left air sack - (number of fowl) (TS-resistant MG; Dose 1.56 mg/kg): 5 | Infectious index Right air sack - (number of fowl) (TS-resistant MG; Dose 1.56 mg/kg): 5 | Number of fowl having air sack lesions (TS-resistant MG; Dose 3.13 mg/kg): 0 | Infectious index Left air sack + (number of fowl) (TS-resistant MG; Dose 3.13 mg/kg): 0 | Infectious index Right air sack + (number of fowl) (TS-resistant MG; Dose 3.13 mg/kg): 0 | Infectious index Left air sack ++ (number of fowl) (TS-resistant MG; Dose 3.13 mg/kg): 0 | Infectious index Right air sack ++ (number of fowl) (TS-resistant MG; Dose 3.13 mg/kg): 0 | Infectious index Left air sack +++ (number of fowl) (TS-resistant MG; Dose 3.13 mg/kg): 0 | Infectious index Right air sack +++ (number of fowl) (TS-resistant MG; Dose 3.13 mg/kg): 0 | Infectious index Left air sack - (number of fowl) (TS-resistant MG; Dose 3.13 mg/kg): 5 | Infectious index Right air sack - (number of fowl) (TS-resistant MG; Dose 3.13 mg/kg): 0 | In vitro Sensitivity Test H.pp M-1 [4]: 0.2 µg/mL | In vitro Sensitivity Test H.pg 221 [5]: >1.56 µg/mL | In vitro Sensitivity Test H.pg S-1 [6]: >1.56 µg/mL | In vitro Sensitivity Test S.au 209P [7]: ≦0.0125 µg/ml | In vitro Sensitivity Test B.br ABU-1 [8]: 3.13 µg/mL | In vitro Sensitivity Test E.coli E-17 [9]: 0.2 µg/ml | In vitro Sensitivity Test E.coli JC-2 [10]: 0.1 µg/mL | In vitro Sensitivity Test S.typhi 13311 [11]: 0.2 µg/mL | In vitro Sensitivity Test MG T-7-T [12]: 0.00625 µg/mL | In vitro Sensitivity Test MS 1853 [13]: 0.2 µg/mL | In vitro Sensitivity Test MG S6 [14]: 0.00625 µg/mL | In vitro Sensitivity Test Mh ST-11 [15]: <0.025 µg/mL | In vitro Sensitivity Test MS F10-2as [16]: 0.2 µg/ml

— patent publication EP0429304A2, “Pyridone-carboxylic acid derivatives and their use as veterinary medicines” (SHIONOGI SEIYAKU KABUSHIKI KAISHA trading under the name of …, priority 1989, dated 1991)
